Counter-ions that a name gives are not always drawn. Like-named read-outs stand apart in the source and are kept apart here. Bounds are passed on as bounds.

One series has as its system endothelial cells. Description: Primary screening: cell-based growth HTS and tube formation HTS (bioactivity class).
The test system of series [1] is PAE cells. Description: Growth dose response (IC50) in PAE. The class given is cell-based, porcine. Conditions: read-out: Growth IC50 (M) in PAE. An excerpt: FIG. 6: Dose response curves were constructed for all the SMs of interest using PAE cells. Data were fitted to non-linear sigmoid curves using GraphPad Prism (GraphPad Software, Inc., La Jolla, Calif.).
Dose response curves were constructed for all the SM of interest using PAE cells. Data were fitted to non-linear sigmoid curves using GraphPad Prism (GraphPad software, Inc.).

Another series can be described thus: in vitro. As to conditions: pig.
For series [2], the system named is PAE cells. The experiment in a line: Fluorescence-release cytotoxicity assay. Conditions: endothelial cells.
Another series has as its system PAE. Description: Apoptosis in PAE. Type of series: cell-based, porcine.
Series [3] concerns PAE cells.
A further series relates to SK-ML-1 tumors. Description: SK-ML-1 tumor xenograft. Conditions: 100 μl of 10 μM IP, three times a week for four weeks.
In the next series the target is KDR(VEGFR2) (Homo sapiens, UniProt P35968). Description: SelectScreen kinase activity profiling, KDR(VEGFR2). The class given is biochemical. Conditions: VEGFR2 receptor. An excerpt: To characterize the RTK inhibitory activity of the antiangiogenic SMs described herein, 36 compounds were chosen and screened using Invitrogen's SelectScreen® kinase activity profiling service (described on-line at tools.invitrogen.com/content.cfm?pageid=10413#selection). VEGFR1 and FGFR2 RTK inhibitory activities were studied. […] Overall, a small minority of the SMs tested had any substantial kinase inhibitory activity. This observation supports a mechanism of antiangiogenic action other than RTK inhibition for most of the SMs described herein.
Sequence of KDR(VEGFR2) (P35968 20-1356): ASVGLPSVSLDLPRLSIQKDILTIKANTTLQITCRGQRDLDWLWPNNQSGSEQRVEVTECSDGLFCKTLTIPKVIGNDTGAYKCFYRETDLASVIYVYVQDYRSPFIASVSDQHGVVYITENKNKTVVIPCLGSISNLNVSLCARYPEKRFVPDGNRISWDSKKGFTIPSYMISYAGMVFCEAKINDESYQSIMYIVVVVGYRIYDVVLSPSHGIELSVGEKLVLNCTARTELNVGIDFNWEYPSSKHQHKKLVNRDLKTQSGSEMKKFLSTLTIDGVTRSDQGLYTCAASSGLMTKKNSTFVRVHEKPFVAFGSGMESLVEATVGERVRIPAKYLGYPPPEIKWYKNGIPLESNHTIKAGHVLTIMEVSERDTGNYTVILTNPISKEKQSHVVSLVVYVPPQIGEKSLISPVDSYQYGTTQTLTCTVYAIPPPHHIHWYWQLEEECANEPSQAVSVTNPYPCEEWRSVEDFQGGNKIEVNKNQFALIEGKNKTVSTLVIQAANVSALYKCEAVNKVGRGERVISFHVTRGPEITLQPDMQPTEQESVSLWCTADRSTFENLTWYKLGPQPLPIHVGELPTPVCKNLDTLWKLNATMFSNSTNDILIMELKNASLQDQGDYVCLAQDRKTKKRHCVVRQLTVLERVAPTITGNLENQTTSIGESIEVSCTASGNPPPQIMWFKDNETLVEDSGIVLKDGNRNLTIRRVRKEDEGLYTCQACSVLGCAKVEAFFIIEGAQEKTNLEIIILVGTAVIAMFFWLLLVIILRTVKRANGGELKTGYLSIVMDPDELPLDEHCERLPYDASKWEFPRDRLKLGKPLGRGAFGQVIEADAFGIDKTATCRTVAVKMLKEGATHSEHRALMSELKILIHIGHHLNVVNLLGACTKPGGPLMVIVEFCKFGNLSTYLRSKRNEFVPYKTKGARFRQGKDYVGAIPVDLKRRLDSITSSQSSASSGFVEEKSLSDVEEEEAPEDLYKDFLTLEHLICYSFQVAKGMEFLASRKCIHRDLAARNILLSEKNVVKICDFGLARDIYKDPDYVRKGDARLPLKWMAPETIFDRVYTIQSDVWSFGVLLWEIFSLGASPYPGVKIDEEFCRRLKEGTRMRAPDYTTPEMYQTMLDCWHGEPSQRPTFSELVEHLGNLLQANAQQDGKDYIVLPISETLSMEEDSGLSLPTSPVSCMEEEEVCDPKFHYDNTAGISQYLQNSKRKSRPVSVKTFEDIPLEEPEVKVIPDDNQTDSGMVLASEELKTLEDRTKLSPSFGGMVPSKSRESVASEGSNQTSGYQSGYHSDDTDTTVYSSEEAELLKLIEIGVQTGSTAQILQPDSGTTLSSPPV

Where [4] appears, read: HTS at 1 μM final concentration.

Description for endothelial cells: All assays were performed in clear bottom black 96-well plates. The plates were always arranged to include a column for negative controls (column 1), a column for positive controls (column 12), and 10 columns for evaluation of 80 compounds. In order to increase stringency and avoid false positives in the HTS assays, all compounds were tested at a low final concentration of 1 μM.
In summary, 1,000 cells/well were seeded in the 96-well plates described above. Cells in columns 2-12 were seeded in 10% FBS and cells in column 1 (negative control) were seeded in 0% FBS. Small molecules (80 per plate) were added in columns 2-11 at a final concentration of 1 μM (both positive and negative controls were exposed to the same percentage of DMSO in wells containing test compounds). The fluorescence emitted by every well was measured spectrophotometrically (Infinite M200, TECAN®, Mannedorf, Switzerland) every 24 hours for 5-7 days.
In summary, 20,000 cells/well were seeded on top of 50 μl of pre-gelled GELTREX® gel matrix (Invitrogen, Carlsbad, Calif.). All cells were seeded in 10% FBS. […] Small molecules (80 per plate) were added to columns 2-11 at a final concentration of 1 μM (both positive and negative controls were exposed to the same percentage of DMSO in wells containing test compounds). Plates were incubated for 5-7 hours and automatically imaged with the help of an epifluorescence microscope (Axiovert® 200M, Zeiss) equipped with a motorized stage and AxioVision® (Zeiss) software.
For hit detection, a stringent threshold (sigma 3.5) was applied to avoid false positives.

The IC50 is the point on the concentration scale where inhibition reaches its midpoint. As to `COc1ccc(-c2csc3c2-n2cccc2C3=O)cc1` [Compound 63, 3-(4-methoxyphenyl)thieno[2,3-b]pyrrolizin-8-one], in the series on endothelial cells (1 μM), the “type of inhibition (endothelial cell growth and/or tube formation)” value (from here on “type of inhibition”) is “inhibited both endothelial cell growth and tube formation”. Besides, in the series with PAE cells [1] (Sus scrofa, PAE cells), the IC50 was 1.55e-11 M. This compound also returned a cytotoxicity in the series “in vitro” of 7.48%. For the same compound, the “cytotoxicity (in words)” value with PAE cells [2] is reported as “without cytotoxicity”.
As to “azidobenzene; 1H-indene; prop-1-en-2- ylbenzene [Compound 49]”, the Bioactivity with endothelial cells was found to be 2. Moreover, the “Apoptosis PAE (RFU)” value in the series on PAE is given as 1.235 RFU.
On to “3-[(2,4- dimethylphenyl)carbamoyl]naphthalen-2- olate; N-(2,4-dimethylphenyl)-3- hydroxynaphthalene-2-carboxamide; nickel(2+) [Compound 37]”, for which the Bioactivity in the series on endothelial cells stood at 1. Moreover, in the series with PAE cells [1], the half-maximal inhibitory concentration (IC50) was greater than 1e-06 M. In addition, in the series with PAE, the “Apoptosis PAE (RFU)” value came to 2.037 RFU.
For the compound `O=[N+]([O-])c1ccc(S(=O)(=O)Cc2ccccc2)c([N+](=O)[O-])c1` [Compound 64, 1-benzylsulfonyl-2,4-dinitrobenzene], the “type of inhibition” value in the series on endothelial cells (1 μM) is “inhibited both endothelial cell growth and tube formation”; in the series with endothelial cells (1 μM, listed as NSC 122657), “tube formation+growth”. The IC50 in the series with PAE cells [1] (Sus scrofa, PAE cells) came out at 2.79e-10 M. The “cytotoxicity (in words)” value in the series on PAE cells [3] is on record as “without cytotoxicity”. Moreover, the cytotoxicity in “in vitro” is 7.09%.
As to “[benzylsulfanyl(sulfoniumylidene) methyl]-(1-pyridin-2- ylethylideneamino)azanide; chlorocopper [Compound 65]”, in the series with endothelial cells (setting [4]), the Bioactivity stood at 3. Besides, the half-maximal inhibitory concentration (IC50) in the series with PAE cells [1] (PAE cells) stood at 1.09e-11 M. The “Apoptosis PAE (RFU)” value in the series with PAE (PAE cells) is 2.227 RFU.
For `CC1(C)N=C(N)N=C(N)N1CCCCc1ccccc1.Cl` [Compound 11, 6,6-dimethyl-1-(4-phenylbutyl)-1,3,5-triazine-2,4-diamine hydrochloride], the IC50 in the series with PAE cells [1] (Sus scrofa, PAE cells) worked out at 2.37e-11 M. Moreover, in “in vitro”, the cytotoxicity was 18.7%. The “cytotoxicity (in words)” value with PAE cells [2] is on record as “cytotoxic”.
Take `COc1ccc(CC2C(=O)NC(C)C(=O)N(C)C3Cc4ccc(cc4)Oc4cc(ccc4O)CC(C(=O)NC(C)C(=O)NC(C)C(=O)N2C)N(C)C3=O)cc1` (stereo not shown) [Compound 58, Deoxybouvardin or 24-hydroxy-10-(4-methoxybenzyl)-4,7,9,13,15,29-hexamethyl-22-oxa-3,6,9,12,15,29-hexaazatetracyclo-[14.12.2.2~18,21~.1~23,27~]tritriaconta-18,20,23(31),24,26,32-hexaene-2,5,8,11,14,30-hexone]: in the series on endothelial cells, the “type of inhibition” value is recorded as “tube formation”. For the same compound, the “inhibition of tumor growth, SK-ML-1 xenograft” value with SK-ML-1 tumors is recorded as “potencies similar to AVASTIN®”. The cytotoxicity in the series “in vitro” is 11.2%.
For the compound `COc1ccc(CC2C(=O)NC(C)C(=O)N(C)C3C(=O)N(C)C(Cc4ccc(O)c(c4)Oc4ccc(cc4)C3O)C(=O)NC(C)C(=O)NC(C)C(=O)N2C)cc1` (stereo not shown) [Compound 59, Bouvardin or 17,24-dihydroxy-10-(4-methoxybenzyl)-4,7,9,13,15,29-hexamethyl-22-oxa-3,6,9,12,15,29-hexaazatetracyclo-[14.12.2.2-18,21~.1~23,27~]tritriaconta-18,20,23(31),24,26,32-hexaene-2,5,8,11,14,30-hexone], the Bioactivity with endothelial cells is given as 2. Further, the “Cytotoxicity (%)” value in the series on PAE cells [3] came out at 9.794%. Besides, in the series with PAE, the “Apoptosis PAE (RFU)” value came to 6.215 RFU.
Regarding `COc1cc2cc(c1Cl)N(C)C(=O)CC(OC(=O)C(C)C)C1(C)OC1C(C)C1CC(O)(NC(=O)O1)C(OC)/C=C/C=C(\C)C2` (stereo not shown) [Compound 56, Maytansinol isobutyrate or 4,24-Dioxa-9,22-diazatetracyclo[19.3.1.110,14.03,5] hexacosane, maytansine deriv.], the “type of inhibition” value with endothelial cells is on record as “tube formation”. In “in vitro”, the cytotoxicity was 7.52%.
With `O=C(c1no[n+]([O-])c1C(=O)c1csc2ccccc12)c1csc2ccccc12` [Compound 68, [4-(1-benzothiophene-3-carbonyl)-2-oxido-1,2,5-oxadiazol-2-ium-3-yl]-(1-benzothiophen-3-yl)methanone], in the series on PAE cells [1] (Sus scrofa, PAE cells), the IC50 was 1.4e-10 M. In the series “in vitro”, this compound showed a cytotoxicity of 19.1%. Moreover, the “cytotoxicity (in words)” value with PAE cells [2] is listed as “cytotoxic”.
Take `COc1cc2ccccc2c2cc([N+](=O)[O-])oc12` [Compound 1, 4-methoxy-2-nitrobenzo[e][1]benzofuran]: the IC50 in the series with PAE cells [1] (Sus scrofa, PAE cells) is 3.72e-10 M. For the same compound, the cytotoxicity in “in vitro” stood at 7.56%.
For `OC(c1cc(-c2ccc(Cl)cc2)nc2ccccc12)C1CCCCN1` (stereo not shown) [Compound 15, [2-(4-chlorophenyl)quinolin-4-yl]-piperidin-2-ylmethanol] the same measures were 6.55e-10 M and 7.93%.
As for `Nc1nc(N)c(-c2cccc(C(F)(F)F)c2)c(Cc2cccc(C(F)(F)F)c2)n1` [Compound 28, 5-[3-(trifluoromethyl)phenyl]-6-[[3-(trifluoromethyl)phenyl]methyl] pyrimidine-2,4-diamine], the IC50 with PAE cells [1] (Sus scrofa, PAE cells) was determined as 7.41e-11 M. In the series “in vitro”, the cytotoxicity turned out to be 8.65%.
For `CCN(CC)COC(=S)S` [Compound 4, diethylaminomethoxymethanedithioic acid; sodium], the 50% inhibitory concentration (IC50) in the series on PAE cells [1] (Sus scrofa, PAE) is greater than 1e-06 M. The compound also returned a cytotoxicity in the series “in vitro” of 7.35%.
For the compound `C(=C\c1ccccc1)/C=N/c1ccc2c(c1)Cc1ccccc1-2` [Compound 2, (E)-N-(9H-fluoren-2-yl)-3-phenylprop-2-en-1-imine], the IC50 in the series on PAE cells [1] (Sus scrofa, PAE cells) is 1.11e-10 M. In addition, the cytotoxicity in the series “in vitro” stood at 7.73%.
Turning to `N=C1C=CC(=C(c2ccc(N)cc2)c2ccc(N)cc2)C=C1` [Compound 8, [4-[(4-aminophenyl)-(4-iminocyclohexa-2,5-dien-1-ylidene)methyl]phenyl]azanium chloride], the concentration for half-maximal inhibition (IC50) in the series on PAE cells [1] (Sus scrofa, PAE cells) is greater than 1e-06 M. The same compound registered a cytotoxicity in “in vitro” of 8.51%.
Take `CC1(C)N=C(N)N=C(N)N1c1cccc(CSc2ccccc2)c1` [Compound 21, 6,6-dimethyl-1-[3-(phenylsulfanylmethyl)-phenyl]-1,3,5-triazine-2,4-diamine hydrochloride]: the half-maximal inhibitory concentration (IC50) with PAE cells [1] (Sus scrofa, PAE cells) turned out to be 2.29e-11 M. Also, in the series “in vitro”, the cytotoxicity turned out to be 6.57%.
With “2,5-dibromo-3,6-dimethylbenzene-1,4- diol; 2,5-dibromo-3,6- dimethylcyclohexa-2,5-diene-1,4-dione [Compound 72]”, the Bioactivity in the series on endothelial cells turned out to be 3. In addition, the IC50 in the series with PAE cells [1] is 1.39e-10 M. In addition, the “Cytotoxicity (%)” value in the series with PAE cells [3] is given as 13.88%. The “Apoptosis PAE (RFU)” value in the series on PAE turned out to be 1.368 RFU.
In the case of `CCC(=O)OCN1C(=O)C=CC1=O` [Compound 39, (2,5-dioxopyrrol-1-yl)methyl propanoate], the “type of inhibition” value with endothelial cells (1 μM) is “tube formation”. Further, the “RTK inhibitory activity (in words)” value at KDR(VEGFR2) was “showed RTK inhibitory activity”. Besides, in “in vitro”, the cytotoxicity was 8.54%.
On to `Nc1ncnc2c(C3OC(CO)C(O)C3O)nsc12` (stereo not shown) [Compound 7, 2-(7-amino-[1,2]thiazolo[4,5-d]pyrimidin-3-yl)-5-(hydroxymethyl)oxolane-3,4-diol], for which the IC50 in the series with PAE cells [1] (Sus scrofa, PAE cells) amounted to 1.12e-11 M. The cytotoxicity in the series “in vitro” was 7.32%.
Take `FC(F)(F)c1cccc(-c2nc3nc(Cl)c(Cl)nc3[nH]2)c1` [Compound 12, 5,6-dichloro-2-[3-(trifluoromethyl)phenyl]-1H-imidazo[4,5-b]pyrazine]: the concentration for half-maximal inhibition (IC50) with PAE cells [1] (Sus scrofa, PAE cells) worked out at 3.02e-10 M. Also, the cytotoxicity in the series “in vitro” amounted to 6.73%.
As for “zinc; 8-hydroxy-3,4,4a,5,6,7,8,8a- octahydro-2H-quinolin-1-ide-5-sulfonic acid; 5-sulfo-1,2-dihydroquinolin-8-olate [Compound 61]”, the Bioactivity with endothelial cells was found to be 2. Besides, in the series on PAE cells [3], the “Cytotoxicity (%)” value is listed as 7.901%. The “Apoptosis PAE (RFU)” value in the series on PAE came to 1.841 RFU.
For `OC(c1cc(-c2ccccc2)nc2c1ccc1ccccc12)C1CCCCN1` (stereo not shown) [Compound 66, (2-phenylbenzo[h]quinolin-4-yl)-piperidin-2-ylmethanol], the half-maximal inhibitory concentration (IC50) in the series with PAE cells [1] (Sus scrofa, PAE cells) was 4.12e-10 M. The compound also came in with a cytotoxicity in the series “in vitro” of 13.1%.
For the compound `COc1cccc2c(O)c3c(c(N)c12)C(=O)C1=C(C[C@@](O)(C(C)=O)C[C@@H]1OC1CC(N)C(O)C(C)O1)C3=O` (stereo partly drawn) [Compound 35, (1S,3S)-3-acetyl-11-amino-1-(4-amino-5-hydroxy-6-methyloxan-2-yl)oxy-3,6-dihydroxy-10-methoxy-2,4-dihydro-1H-tetracene-5,12-dione hydrochloride], the IC50 in the series on PAE cells [1] (Sus scrofa, PAE cells) was 2.41e-11 M. In “in vitro”, this compound showed a cytotoxicity of 7.98%.
The corresponding values for `Oc1ccc(Cl)cc1Cc1cc(Cl)cc(Cc2cc(Cl)ccc2O)c1O` [Compound 25, 4-chloro-2,6-bis[(5-chloro-2-hydroxyphenyl)methyl]phenol] are 2.27e-10 M and 9.57%.
The compound “bromocopper; (dipyridin-2- ylmethylideneamino)- [methylsulfanyl(sulfoniumylidene) methyl]azanide [Compound 70]” gave a Bioactivity in the series on endothelial cells (setting [4]) of 3. The 50% inhibitory concentration (IC50) in the series with PAE cells [1] (PAE cells) amounted to 6.11e-12 M. Also, the “Cytotoxicity (%)” value in the series on PAE cells [3] was found to be 38.53%. Also, the “cytotoxicity (in words)” value with PAE cells [2] is reported as “cytotoxic”. The “Apoptosis PAE (RFU)” value in the series with PAE (PAE cells) was 1.021 RFU.
